Test results reported in patent publication US11370794B2, “Toll-like receptor antagonist compounds and methods of use” (Dynavax Technologies Corporation, priority 2016, dated 2022).

Biological target: T1, mouse TLR9 (Mus musculus, UniProt Q9EQU3)
T1 construct: Balb/c mice (Charles River); host or cells: Balb/c mice, in vivo
T1 sequence (Q9EQU3 26-1032): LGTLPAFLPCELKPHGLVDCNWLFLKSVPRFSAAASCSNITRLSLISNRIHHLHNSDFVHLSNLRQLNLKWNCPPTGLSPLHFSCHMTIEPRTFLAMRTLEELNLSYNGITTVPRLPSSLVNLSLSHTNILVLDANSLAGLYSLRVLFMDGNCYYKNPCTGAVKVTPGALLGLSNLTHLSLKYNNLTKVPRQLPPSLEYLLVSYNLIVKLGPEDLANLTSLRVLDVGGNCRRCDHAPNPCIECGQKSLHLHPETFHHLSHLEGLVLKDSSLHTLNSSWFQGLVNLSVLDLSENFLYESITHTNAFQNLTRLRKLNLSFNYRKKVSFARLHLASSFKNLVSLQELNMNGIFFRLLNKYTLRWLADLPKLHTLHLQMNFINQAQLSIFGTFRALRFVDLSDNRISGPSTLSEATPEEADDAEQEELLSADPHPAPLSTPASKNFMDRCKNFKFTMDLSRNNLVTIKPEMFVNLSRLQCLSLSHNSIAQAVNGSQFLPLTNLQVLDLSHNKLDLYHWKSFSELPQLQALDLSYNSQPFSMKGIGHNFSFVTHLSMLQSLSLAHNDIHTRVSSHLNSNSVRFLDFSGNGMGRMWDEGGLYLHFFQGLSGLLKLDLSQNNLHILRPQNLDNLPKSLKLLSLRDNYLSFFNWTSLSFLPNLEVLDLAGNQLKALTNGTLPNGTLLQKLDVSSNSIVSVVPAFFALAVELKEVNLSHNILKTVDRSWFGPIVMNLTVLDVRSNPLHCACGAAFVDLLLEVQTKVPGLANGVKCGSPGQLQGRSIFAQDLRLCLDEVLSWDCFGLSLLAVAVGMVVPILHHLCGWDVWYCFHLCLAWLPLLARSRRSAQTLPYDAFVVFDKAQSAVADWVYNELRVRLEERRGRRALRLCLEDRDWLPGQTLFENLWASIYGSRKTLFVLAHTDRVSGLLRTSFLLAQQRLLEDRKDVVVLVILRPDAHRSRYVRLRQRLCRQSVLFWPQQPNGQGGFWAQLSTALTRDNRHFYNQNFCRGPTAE
Test: Inhibition of mouse TLR9 in mouse acute challenge model (serum IL-12)
Type: in vivo
Details: 5 mg/Kg, intravenous or intra-peritoneal, serum IL-12 four hours after CpG DNA agonist
Method: Example B4—Inhibition of Mouse TLR9 in Mouse Acute Challenge Model
When administered a CpG-containing DNA oligonucleotide, mice respond in an acute manner with release of cytokines into the peripheral blood within 6 hours. The addition of an inhibitor against TLR9 will attenuate the response to the DNA oligonucleotide agonist, which can be measured through a reduction in serum cytokines.
Balb/c mice (Charles River). TLR9 agonist 1018 ISS, CpG-containing DNA oligonucleotide. Mouse interleukin (IL)-12p40 ELISA kit (BD Pharmingen Cat. No. 551219 and 554476).
Mice were injected by the intravenous or intra-peritoneal routes with test compound at 5 mg/kg. Following injection of test compound, mice were injected with a TLR9 agonist (a CpG-containing DNA oligonucleotide) by the intra-peritoneal route to a final dose of approximately 2.5 mg/kg. Four hours following administration of the DNA oligonucleotide, blood was collected and processed to serum. The serum was tested for the presence of IL-12 using an ELISA kit. The amount of IL-12 produced is a reflection of the amount of TLR9-dependent receptor activity.

Cc1ccc(-n2nc3c(N4CCC(C(=O)NCCCN(C)C)CC4)nnc(C)c3c2C)cc1 [Compound No. 5, 1-(3,4-dimethyl-2-(p-tolyl)-2H-pyrazolo[3,4-d]pyridazin-7-yl)-N-(3-(dimethylamino)propyl)piperidine-4-carboxamide]
inhibition of TLR9 activity in mice (FIG. 1): inhibition of TLR9 activity
